Source: paper PMC11931445, “A Novel Compound QO‐83 Alleviates Acute and Chronic Epileptic Seizures in Rodents by Modulating KV7 Channel Activity” (CNS Neuroscience & Therapeutics, 2025)

Columns and labels:
[1] = molecular target: T1, KV7.2/7.3 (Homo sapiens, UniProt O43525+O43526); experiment: Rb+ efflux high-throughput screening (ICR 8000); assay type: cell-based
T1 construct: expressed in transfected cells
Description: (§1) The activation effect of QO-83 on the KV7 channel was preliminarily verified using high-throughput screening methodologies.
(§2) [picture] Figure S3: The activation effect of QO-83 on the KV7 channels was preliminarily verified by high-throughput screening. (A)High-throughput screening for KV7.2/7.3 stable expressed in CHO cells (n = 6). (B)High-throughput screening for KV7.4 stable expressed in HEK293 cells (n = 6). (C) High-throughput screening for KCNQ1/E1 transient expression in HEK293 cells (n = 6).
(§3) The high-throughput screening experiment utilizing the ICR 8000 rubidium ion elution method aimed to assess the sensitivity of QO-83 towards KV7.2/3 and KV7.1 channels. Cells in the logarithmic growth phase were seeded into 96-well plates at a density of 2×10^5 cells per well. Following overnight incubation, the medium was replaced with 200 μL of RBCL-loaded buffer and incubated under controlled conditions (5% CO2, 37°C) for 3 hours. The loading buffer composition consisted of 5.4 mM RbCl, 5 mM Glucose, 25 mM HEPES, 150 mM NaCl, 1 mM MgCl2, 0.8 mM NaH2PO4•2H2O, and 2 mM CaCl2.
(§4) Subsequently, the solution was aspirated, and the cells were washed thrice with Washing Buffer (5.4 mM KCl, 25 mM HEPES, 150 mM NaCl, 1 mM MgCl2, 0.8 mM NaH2PO4•2H2O, 2 mM CaCl2). […] Each concentration was distributed across triplicate wells, with corresponding concentration solvent control wells included. […]

[2] = molecular target: T2, KV7.4 (Homo sapiens, UniProt P56696); experiment: Rb+ efflux high-throughput screening (ICR 8000); assay type: cell-based
T2 construct: expressed in transfected cells
Description: as §1, §2, §3, §4

[3] = molecular target: T3, KV7.1/KCNE1 channel (Homo sapiens, UniProt P51787); experiment: Rb+ efflux high-throughput screening (ICR 8000); assay type: cell-based; conditions: up to 100 μM, transient expression in HEK293 cells
T3 construct: expressed in transfected cells; host or cells: HEK293, transient expression
Protocol: Furthermore, the KV7.1 channel, which co-expresses with the auxiliary subunit KCNE1 to form slowly activated delayed rectifier potassium currents (IKs) during cardiac repolarization, was evaluated using the Rb^+ efflux high-throughput screening technique to determine the opening activity of QO-83 on the KCNQ1/E1 channel.
as §2
as §3, with “CaCl2. […]” for “CaCl2.”

[4] = tested on: pilocarpine-induced seizures; experiment: Pilocarpine-induced status epilepticus model with EEG; assay type: in vivo, Sprague–Dawley (SD) rats; conditions: for effect on EEG power spectral density: pilocarpine-treated rats
Description: For animal experiments, we used adult male Sprague–Dawley (SD) rats weighing between 240 and 260 g. Isoflurane anesthesia was used for all operations. Rats were secured in a stereotaxic frame, and the anterior fontanelle was marked 3 mm posteriorly. Additionally, marks were made approximately 3 mm lateral to the midline on both sides to indicate the insertion points for the positive and negative electrodes. A ground electrode was placed subcutaneously in the occipital lobe to eliminate recording noise. Postoperatively, each animal was housed separately in a single cage and provided food and water ad libitum. After a 3‐day adaptation period, electroencephalograms (EEG) were recorded.
The experimental procedure commenced with an intraperitoneal injection of lithium chloride (127 mg/kg). After 24 h, subcutaneous scopolamine methyl nitrate (1 mg/kg) was administered. […] Twenty minutes later, status epilepticus (SE) was induced by administering pilocarpine (100 mg/kg, i.p.). SE was terminated 2 h later by administering 10% chloral hydrate.
The Pilo group, 2 mg/kg XE991 group, and 2 mg/kg XE991 + 1 mg/kg QO‐83 group received an intraperitoneal injection of lithium chloride (127 mg/kg) 24 h prior to testing. Following this, scopolamine methyl nitrate (1 mg/kg) was administered […], and after 10 min, each group was treated with 25% beta‐cyclodextrin, 2 mg/kg XE991, or 2 mg/kg XE991, respectively. After 15 min, 25% beta‐cyclodextrin, 25% beta‐cyclodextrin, or 1 mg/kg QO‐83 was administered. Finally, 25 min later, pilocarpine (100 mg/kg, i.p.) was administered to induce seizures.
Seizure severity was assessed using a standardized scale ranging from 1 to 5, adapted from previous research criteria. Stage 1 encompasses mouth and facial movements, including wet dog shakes. Stage 2 involves head nodding. Stage 3 is characterized by unilateral forelimb clonus. […] Finally, stage 5 manifests as clonus of all limbs accompanied by falling.

[5] = tested on: PTZ-induced seizures; experiment: Metrazol maximal seizure (MMS) model; assay type: in vivo, C57BL/6J mice; conditions: 15 mg/kg
Protocol: For this experimental phase, male C57BL/6J mice weighing between 18 g and 25 g were randomly assigned to four groups based on their body weight. The QO‐83 group was divided into two subgroups, one receiving a dosage of 1 mg/kg (i.p.) and the other receiving a dosage of 3 mg/kg (i.p.).
PTZ (85 mg/kg, 0.1 mL per 10 g) was administered subcutaneously at the nape of the neck. Subsequently, mice were promptly placed in individual transparent observation chambers under quiet conditions. A stopwatch was utilized to measure seizure latency, defined as the time from PTZ injection to the onset of a generalized systemic clonic seizure and loss of the […]. The number of animals experiencing seizures was manually recorded.

[6] = tested on: PNC-induced seizures; experiment: Penicillin (PNC) induced acute epilepsy model; assay type: in vivo, SD rats; conditions: 40 mg/kg i.g.
Protocol: In the penicillin (PNC) induced acute epilepsy model study, male SD rats weighing between 180 g and 250 g were utilized. […] Each group consisted of 10 rats.
PNC was administered intraperitoneally at a dose of 8 million U/kg to induce epileptic seizures. […] In the Compound QO‐83 treatment groups, rats were orally administered the designated doses of Compound QO‐83, followed by an intraperitoneal injection of PNC after a 20‐min interval. The PNC model group received an oral gavage of a 0.5% CMC‐Na solution, followed by an intraperitoneal injection of PNC after a 20‐min interval. […] Seizure behaviors, including convulsions, limb jerks, and loss of postural control, were observed and analyzed in all groups.

[7] = tested on: PTZ kindling seizures; experiment: Chronic PTZ-induced epileptic kindling model; assay type: in vivo, Wistar Institute rats
Protocol: In the preparation of the chronic PTZ‐induced epileptic kindling model, male Wistar Institute rats weighing between 180 and 250 g were utilized. […] During the modeling period, all groups received daily intraperitoneal injections of 0.2 mL/100 g between 9:00 and 15:00.
Seizure severity was assessed using the Racine scale.

[8] = Colour stability of drug solutions; assay type: physicochemical; conditions: 10 μM in saline, 37°C, 30 days
Protocol: Both drugs were dissolved in saline at a concentration of 10 μM and maintained at a constant temperature of 37°C for 30 days.

## CCOC(=O)Nc1ccc(NCc2ccc(F)cc2)cc1N [RTG, retigabine]
[1]
  EC50: 180 ± 70 nM
[2]
  EC50: 1380 ± 310 nM
[3]
  opening activity on KV7.1/KCNE1 channel: did not affect
[4]; 1 mg/kg i.p.
  effect on epileptic behavior: could not rescue the epileptic behavior
  effect on EEG power spectral density: did not exhibit effects equivalent
[4]; 10 mg/kg i.p.
  effect on latency of seizures: significantly prolonged the latency of seizures
  effect on seizure grade: reduced the seizure grade
  effect on EEG power spectral density: significantly inhibited the increase in EEG power spectral density
[5]
  seizure protection rate: 40%
[6]
  effect on seizure latency: significantly increased seizure latency
  seizure grade: 2.66 ± 0.33
[7]; 10 mg/kg
  effect on latency period: significantly prolong the latency period
[7]; 10 mg/kg i.p. daily, 30th day, model 4.68 ± 0.62
  seizure grade: 1.75 ± 0.31
[8]
  color change of drug solution: developed a distinct purple coloration
